Values of other authors, collected in patent publication EP0292255A2, “Inhibitor of ribonucleotide reductase” (Merck & Co., Inc., priority 1987, dated 1988).
Ends that are not written are not given here.

System: ribonucleotide reductase enzyme of herpes simplex virus
Details: result in words, from Nature 321:439-441 and 441-443 (1986)

Substance | inhibition of the activity of the ribonucleotide reductase enzyme of herpes simplex virus in vitro
Tyr Ala Gly Ala Val Val Asn Asp Leu (YAGAVVNDL; printed: Tyr Ala Gly Ala Val Val Asn Asp Leu) [nonapeptide disclosed by Dutia et al. and Cohen et al] | inhibited
YGAVVNDL [8-desalanine homolog of the nonapeptide, disclosed by Dutia et al] | inhibited
